Measured values from US20240342199A1, “COMBINATION THERAPIES TARGETING MITOCHONDRIA FOR CANCER THERAPY” (The Wistar Institute of Anatomy and Biology, priority 2014, published 2024).
“Also recorded” adds a separate entry of the source.

What was measured:
PI4 kinase = details: concentration of 50 μM; cited from earlier work
PI3 kinase = details: concentration of 50 μM; cited from earlier work
c-Src = c-Src (Homo sapiens, UniProt P12931); details: concentration of 50 μM; cited from earlier work
PKC = details: concentration of 50 μM; cited from earlier work
MAP kinase = details: concentration of 50 μM; cited from earlier work
PC3 or LN229 cells = test: Colony formation assay; format: cell-based, Human; details: 10 μM, 12 days, compared with control cultures
Experimental: Mitochondrial integrity and cell viability. LN229 or U251 cells were treated with vehicle (DMSO), PI3K inhibitors, BEZ (0.5 μM) or LY294002 (50 μM), alone or combination with Gamitrinib (0.5-5 μM, respectively) for 24 h, and analyzed for changes in mitochondrial membrane potential by JC-1 staining and multiparametric flow cytometry, as described. For cell viability, LN229, U87 or U251 cells treated with vehicle, PI3K inhibitors BEZ or LY294002, or, alternatively, transfected with control cDNA or Δ-p85 dominant negative PI3K mutant, alone or in combination with Gamitrinib, were examined by a 3 (4,5-dimethyl-thyazoyl-2-yl)2,5 diphenyltetrazolium bromide (MTT) colorimetric assay. Changes in cell viability in LN229 cells exposed to PX-866 (0-25 μM) were monitored by Trypan blue staining, or, alternatively, MTT. For apoptosis, LN229 cells (1×10^6) treated with vehicle, Gamitrinib or PI3K inhibitors (BEZ, LY294002), alone or in combination for 24 h, were labeled for annexin V plus propidium iodide (PI) (BD Biosciences), and analyzed by multiparametric flow cytometry (BD), as described. Alternatively, cytosolic fractions isolated from treated tumor cells were analyzed for released cytochrome c, by Western blotting. For analysis of colony-forming ability, PC3 or LN229 cells were treated with vehicle (Veh) or PX-866 (10 μM) and analyzed in a colony formation assay after 12 days. […]

LN229 cells [1] = test: Global metabolomics screening; format: cell-based, Human; details: 10 μM for 48 h
Experimental: Metabolomics screen and Reverse Phase Protein Array (RPPA). Changes in expression of 301 individual metabolites in LN229 cells treated with PX-866 (10 μM for 48 h) were determined in a global metabolomics screening as described previously. For RPPA, PC3 or LN229 cells were treated with vehicle, PX-866 (10 μM) or the combination of PX-866 plus Gamitrinib (5 μM) for 24 h. Data in triplicate samples were normalized for protein loading, converted to linear values and then log2 transformed.
Statistical analysis. Data were analyzed using the two-sided unpaired/tests using a GraphPad software package (Prism 4.0) for Windows. Data are expressed as mean±SEM of replicates of a representative experiment out of at least two independent determinations. A p value of ≤0.05 was considered as statistically significant. For RPPA screens, the False Discovery Rate (FDR) values were estimated using Benjamini-Hochberg correction for multiple testing and changes with FDR<20% of at least 1.2 fold were called statistically significant. […] However, biochemicals that were detected in all samples from one or more groups, but not in samples from other groups, were assumed to be near the lower limit of detection in the groups in which they were not detected. In this case, the lowest detected level of these biochemicals was imputed for samples in which that biochemical was not detected. […]

[2] = test system: Akt2 (Ser474) in cytosol and mitochondria; test: Phosphorylated Akt in cytosol and mitochondrial extracts by Western blotting; format: cell-based, Human; details: cytosol and mitochondrial extracts, 48 h
Experimental: Subcellular and submitochondrial fractionation. Mitochondrial fractions were isolated using an ApoAlertTM cell fractionation kit (CLONTECH), as described. Submitochondrial fractions comprising outer membrane (OM), inner membrane (IM), inter-membrane space (IMS) and matrix were prepared as described.

Akt phosphorylation = Akt phosphorylation in tumor cell lines by Western blotting; format: cell-based, Human; details: high (10 μM) and low (0.8 μM) concentrations, within 24 hours
CypD = CypD level and Ser phosphorylation in reconstituted LN229 cells; format: cell-based, Human
From the text: Mutant constructs were confirmed by DNA sequencing and transfected in CypD-depleted cells for reconstitution experiments. In some experiments, CypD depleted LN229 cells were transfected with WT or mutant CypD constructs and analyzed for bioenergetics (glucose utilization, oxygen consumption, ATP production) or cell viability (JC1 or Annexin V multiparametri staining, cytochrome c release) readouts.

tumor cells = test: Senescence markers (SA-β-Gal, PML nuclear bodies); format: cell-based; details: treated tumor cells
LN229 or PC3 cells [3] = test: Cell cycle, proliferation and viability after PI3K inhibition; format: cell-based, Human
Experimental: Mitochondrial integrity and cell viability. LN229 or U251 cells were treated with vehicle (DMSO), PI3K inhibitors, BEZ (0.5 μM) or LY294002 (50 μM), alone or combination with Gamitrinib (0.5-5 μM, respectively) for 24 h, and analyzed for changes in mitochondrial membrane potential by JC-1 staining and multiparametric flow cytometry, as described. For cell viability, LN229, U87 or U251 cells treated with vehicle, PI3K inhibitors BEZ or LY294002, or, alternatively, transfected with control cDNA or Δ-p85 dominant negative PI3K mutant, alone or in combination with Gamitrinib, were examined by a 3 (4,5-dimethyl-thyazoyl-2-yl)2,5 diphenyltetrazolium bromide (MTT) colorimetric assay. Changes in cell viability in LN229 cells exposed to PX-866 (0-25 μM) were monitored by Trypan blue staining, or, alternatively, MTT. For apoptosis, LN229 cells (1×10^6) treated with vehicle, Gamitrinib or PI3K inhibitors (BEZ, LY294002), alone or in combination for 24 h, were labeled for annexin V plus propidium iodide (PI) (BD Biosciences), and analyzed by multiparametric flow cytometry (BD), as described. Alternatively, cytosolic fractions isolated from treated tumor cells were analyzed for released cytochrome c, by Western blotting. For analysis of colony-forming ability, PC3 or LN229 cells were treated with vehicle (Veh) or PX-866 (10 μM) and analyzed in a colony formation assay after 12 days. Colonies were stained with crystal violet. In some experiments, LN229 cells treated with PX-866 (0-25 μM) were analyzed for DNA content by PI staining and flow cytometry.

GBM organotypic cultures = test: Tumor kinome transcription (OpenArray real-time PCR) in GBM organotypic cultures; format: cell-based, Human
Experimental: Organotypic cultures. Short-term organotypic cultures from the different patient samples were established as described previously. […]
Bioinformatics analysis. Transcriptional changes in the human kinome following PI3K inhibition were analyzed using OpenArray real-time PCR amplification. […] Ct values from the experiment were exported from BioTrove OpenArray Real-Time qPCR Analysis Software v1.0.4. ΔΔCt value method was used to calculate fold changes between sample pairs with endogenous control Ct value calculated as average among 15 endogenous controls on the array: ALAS1, B2M, CASC3, G6PD, GAPDH, GUSB, HMBS, HPRT1, IPO8, POLR2A, PPIA, RPLP0, TFRC, UBE2D2, and YWHAZ. P-values for differential expression were calculated using fold changes of 15 endogenous controls as a null distribution.

LN229 or PC3 cells [4] = test: Analysis of bioenergetics (ATP, glucose, lactate, oxygen consumption); format: cell-based, Human
LN229 cells [5] = test: Bliss independence analysis of Gamitrinib and kinase inhibitors; format: cell-based, Human; details: Gamitrinib with NVP-BEZ235, GDC-0941 or AZD6482, 7×7 matrix, 18 h
Experimental: A synergistic anticancer activity of the combination of Gamitrinib and selected kinase inhibitors was further assessed by Bliss independence analysis. For these experiments, LN229 cells were treated with Gamitrinib (concentration range 2-0.008 μmol/L) and selected kinase inhibitors (concentration range 2-0.008 μmol/L) in a 7×7 matrix for 18 h at 37° C. Cell viability was measured by addition of resazurin, and the fractional growth inhibition under the various conditions tested was determined as described above. The Bliss expectation (E) for a combined response was calculated by the equation: E=(A+B)−(A×B) where A and B are the fractional growth inhibitions of drug A and B at a given concentration. […] Each synergy experiment was done two independent times, in duplicate.

[6] = test system: Ser473-phosphorylated Akt (pAkt); test: Ser473-phosphorylated Akt in patient-derived organotypic cultures; format: cell-based, Human; details: Gamitrinib added to PI3K inhibitor-treated tumor organoids
Experimental: Organotypic cultures. Short-term organotypic cultures from the different patient samples were established as described previously. Briefly, precise thick tissue slices (300 μm) were obtained from each case by vibratome serial cutting (VT1200, Leica Microsystems, Milan, Italy), and cultured in six-well plates on organotypic inserts (Millicell PICM ORG, Merck Millipore) for up to 48 h in 1 ml of Ham-F12 complete medium supplemented with vehicle (DMSO, 2.5 μl), pan-PI3K inhibitor LY294002 (50 or 100 μM) or PX-886 (2.5, 5 or 10 μM), or mitochondrial-targeted small molecule Heat Shock Protein-90 (Hsp90) inhibitor, 10 Gamitrinib (GA mitochondrial matrix inhibitor, 10 or 25 μM), or the combination of PX-886 plus Gamitrinib (each agent used at 10 μM). At the end of the experiment, one tissue slice per condition was formalin-fixed and paraffin-embedded (FFPE), and processed for morphological and immunohistochemical analysis. An additional tissue slice collected at the end of the experiment was embedded in optimal cutting temperature, and snap-frozen for molecular or immunofluorescence studies.

LN229 cells [7] = test: High-throughput screening: cell viability (resazurin), compounds with DMSO or Gamitrinib; format: cell-based, Human; details: Gamitrinib 1 μM in combination
Experimental: High-throughput screening and synergy experiments. Compounds for the molecular targeted cancer therapeutics were either purchased from SelleckChem or acquired under Material Transfer Agreement (MTA) with the Wistar Institute MTA. Compounds were suspended in DMSO. The purity and identity of the compounds was confirmed by LC/MS for a fraction of the compounds. Source plates with a 10 point dilution series (5-fold dilutions, ranging from 10-0.0001 μmol/L) were prepared for screening. […] Cell viability was determined by the addition of resazurin to a final concentration of 50 μM and incubation for 8 h. Fluorescence intensity (excitation, 560 nm, emission, 590 nm) was determined on an Envision Xcite Multilabel Reader (Perkin-Elmer), and the fractional growth inhibition was determined by normalizing assay wells to the aggregated average responses of positive control (10 μM doxorubicin) and negative control (0.2% DMSO) treatments (n=12).

[8] = PX-866 (10 μM), AZD6482 (10 μM) or GDC0941 (2 μM) for 48 h

Sequence of c-Src (P12931 whole entry, species assumed): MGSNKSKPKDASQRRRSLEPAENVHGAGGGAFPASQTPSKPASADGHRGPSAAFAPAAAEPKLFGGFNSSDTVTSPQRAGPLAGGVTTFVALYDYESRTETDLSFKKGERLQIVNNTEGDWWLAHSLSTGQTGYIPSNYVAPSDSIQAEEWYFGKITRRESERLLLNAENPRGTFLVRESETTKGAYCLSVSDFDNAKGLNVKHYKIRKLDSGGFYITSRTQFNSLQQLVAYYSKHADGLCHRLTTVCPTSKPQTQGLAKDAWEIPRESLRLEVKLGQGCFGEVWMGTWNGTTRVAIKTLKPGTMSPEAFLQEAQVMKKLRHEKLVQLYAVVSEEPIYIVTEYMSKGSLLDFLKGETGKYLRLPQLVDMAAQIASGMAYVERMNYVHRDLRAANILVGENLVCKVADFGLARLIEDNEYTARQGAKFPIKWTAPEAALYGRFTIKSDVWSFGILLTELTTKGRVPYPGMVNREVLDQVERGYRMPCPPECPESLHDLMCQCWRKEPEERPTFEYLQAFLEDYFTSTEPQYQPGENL

## O=c1cc(N2CCOCC2)oc2c(-c3ccccc3)cccc12 [LY294002, 2-(4-morpholinyl)-8-phenyl-4H-1-benzopyran-4-one]
PI4 kinase
  inhibition of PI4 kinase: did not inhibit
PI3 kinase
  PI3 kinase activity: specifically abolished PI3 kinase activity
c-Src
  inhibition of c-Src: did not inhibit
PKC
  inhibition of PKC: did not inhibit
MAP kinase
  inhibition of MAP kinase: did not inhibit

## C=CCN(/C=C1/C(=O)O[C@H](COC)[C@@]2(C)C1=C(O)C(=O)C1=C2[C@H](OC(C)=O)C[C@]2(C)C(=O)CC[C@@H]12)CC=C [PX-866]
PC3 or LN229 cells
  long-term colony forming ability: unaffected
LN229 cells [1]
  metabolome profile: extensive metabolic reprogramming
[2]
  phosphorylation of Akt2 on Ser474: robust and concentration-dependent isoform-specific phosphorylation of Akt2 on Ser474
Akt phosphorylation
  Akt phosphorylation: induced Akt phosphorylation
CypD; immunoprecipitated from reconstituted LN229 cells
  phosphorylated Ser (pSer) reactivity of WT CypD: increased this response; also recorded: increased reactivity with an antibody to pSer
CypD; reconstituted cells, 10 μM for 48 h
  levels of endogenous or overexpressed CypD: did not affect
Tumor cells
  PML nuclear body number: higher PML nuclear body number
  senescence-associated β-galactosidase staining (SA-β-Gal): increased β-galactosidase staining
LN229 or PC3 cells [3]; 10 μM
  cell cycle (DNA content): arrested in the G1 phase of the cell cycle
  proliferation (direct cell counting): reduced proliferation
LN229 or PC3 cells [3]; LN229 cells, 48 h
  viability (Trypan blue, MTT): without significant decrease in viability
GBM organotypic cultures; PX-866 (10 μM) for 48 h, GBM organotypic cultures
  expression of kinome genes: increased the expression of genes associated with growth factor signaling
LN229 or PC3 cells [4]; 10 μM for 48 h
  oxygen consumption: suppression of oxygen consumption
LN229 or PC3 cells [4]; [8]
  ATP production: reduced ATP production
  glucose utilization: less glucose utilization
  lactate production: less

## Gamitrinib
LN229 cells [5]
  tumor cell proliferation, Bliss independence analysis: synergistically inhibited tumor cell proliferation
[6]
  reactivation of Akt induced by PI3K inhibition: prevented the reactivation of Akt
LN229 cells [7]
  effect on anticancer activity of PI3K/Akt/MTOR pathway antagonists: potently enhanced the anticancer activity
GBM organotypic cultures; Gamitrinib added to PX-866-treated tumor organoids
  transcriptional changes induced by PI3K inhibition: largely reversed the transcriptional changes induced by PI3K inhibition
